Values belong to the compound of their own block, whether it stands above or below them.
Legend:
Recombinant RNF126 = biological target: T1, Recombinant RNF126 (Homo sapiens, UniProt Q9BV68); assay: RNF126 Binding Assay, gel-based ABPP
T1 construct: FLAG (C); host or cells: HEK293T
In short: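 FLAG-tagged human RNF126, expressed in HEK293T and purified on anti-FLAG resin, was pretreated with DMSO or covalent ligand for 30 min at 37 °C in PBS. IA-rhodamine was then added for 1 h at RT in the dark. Probe labelling was read by SDS-PAGE in-gel fluorescence.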

CDK4 = biological target: T2, CDK4 (Homo sapiens, UniProt P11802); assay: RNF126 knockdown study of CDK4 degradation in C33A cells; format: cell-based
T2 construct: endogenous in cells; host or cells: C33A
Method: Proteins were resolved by SDS/PAGE and transferred to nitrocellulose membranes using the Trans-Blot Turbo transfer system (Bio-Rad). Membranes were blocked with 5% BSA in Tris-buffered saline containing Tween 20 (TBS-T) solution for 30 min at RT, washed in TBS-T, and probed with primary antibody diluted in recommended diluent per manufacturer overnight at 4° C. After 3 washes with TBS-T, the membranes were incubated in the dark with IR680- or IR800-conjugated secondary antibodies at 1:10,000 dilution in 5% BSA in TBS-T at RT for 1 h. After 3 additional washes with TBST, blots were visualized using an Odyssey Li-Cor fluorescent scanner. The membranes were stripped using ReBlot Plus Strong Antibody Stripping Solution (EMD Millipore) when additional primary antibody incubations were performed. Antibodies used in this study were CDK4 (Abcam ab108357), Vinculin (Abcam ab129002), GAPDH (Cell Signaling Technology 14C10), RNF126 (Santa Cruz Biotechnology sc-376005), BRD4 (Abcam ab128874), Beta Actin (Cell Signaling Technology 13E5), PDE5 (Abcam ab259945), AR-V7 (Abcam ab273500), c-Abl (Santa Cruz Biotechnology sc-23), SMARCA2 (Abcam ab240648), LRRK2 (Abcam ab133474), BTK (Cell Signaling Technology D3H5), Androgen Receptor (Abcam ab133273).
Short-hairpin oligonucleotides were used to knock down the expression of RNF126 in C33A cells. […]

pure RNF126 protein = biological target: T3, pure RNF126 protein (Homo sapiens, UniProt Q9BV68); assay: Mass spectrometry analysis of compound-labeled RNF126 tryptic digests; format: binding
T3 construct: FLAG (C); host or cells: HEK293T

[1] = biological target: T4, cysteine 32 (C32) on the RING-family E3 ubiquitin ligase RNF126 (Homo sapiens, UniProt Q9BV68); assay: isoTOP-ABPP chemoproteomic profiling in C33A cells; format: cell-based; conditions: C33A cells treated in situ
T4 construct: endogenous in cells; host or cells: C33A
Method: IsoTOP-ABPP studies were done as previously reported (Weerapana, E. et al. Nature 468, 790-795 (2010); Spradlin, J. N. et al. Nat. Chem. Biol. 15, 747-755 (2019); Grossman, E. A. et al. Cell Chem. Biol. 24, 1368-1376.e4 (2017)). All of the isoTOP-ABPP datasets were prepared as described below using the IA-alkyne probe. Cells were lysed by probe sonication in PBS and protein concentrations were measured by BCA assay. Cells were treated for 2 h with either DMSO vehicle or compound before cell collection and lysis. Proteomes were subsequently labeled with IA-alkyne labeling (200 μM) for 1 h at room temperature. CuAAC was used by sequential addition of tris(2-carboxyethyl)phosphine (1 mM, Strem, 15-7400), tris[(1-benzyl-1H-1,2,3-triazol-4-yl)methyl]amine (34 μM, Sigma, 678937), copper(II) sulfate (1 mM, Sigma, 451657) and biotin-linker-azide—the linker functionalized with a tobacco etch virus (TEV) protease recognition sequence as well as an isotopically light or heavy valine for treatment of control or treated proteome, respectively. After CuAAC, proteomes were precipitated by centrifugation at 6,500 g, washed in ice-cold methanol, combined in a 1:1 control:treated ratio, washed again, then denatured and resolubilized by heating in 1.2% SDS-PBS to 90° C. for 5 min. Insoluble components were precipitated by centrifugation at 6,500 g and soluble proteome was diluted in 5 ml 0.2% SDS-PBS. […]

c-ABL kinase = biological target: T5, c-ABL kinase (Homo sapiens, UniProt P00519); assay: c-ABL degradation, Western blotting; format: cell-based
T5 construct: endogenous in cells; host or cells: K562 (inferred)
Method: (§1) C33A cells were purchased from American Type Culture Collection (ATCC) and were cultured in Dulbecco's Modified Eagle Medium (DMEM) containing 10% (v/v) fetal bovine serum (FBS) and maintained at 37° C. with 5% CO2. 22RV1 cells were purchased from the ATCC and were cultured in RPMI-1640 Medium containing 10% (v/v) FBS and maintained at 37° C. with 5% CO2. HEK293T cells were obtained from the UC Berkeley Cell Culture Facility and were cultured in DMEM containing 10% (v/v) FBS and maintained at 37° C. with 5% CO2. K562 cells were obtained from the UC Berkeley Cell Culture Facility and were cultured in Iscove's Modified Dulbecco's Medium (IMDM) containing 10% (v/v) FBS and maintained at 37° C. with 5% CO2. MV-4-11 cells were obtained from the ATCC and were cultured in IMDM containing 10% (v/v) FBS and maintained at 37° C. with 5% CO2. A549 cells were obtained from the ATCC and were cultured in F-12K Medium containing 10% (v/v) FBS and maintained at 37° C. with 5% CO2. Mino cells were obtained from the ATCC and were cultured in RPMI-1640 Medium containing 10% (v/v) FBS and maintained at 37° C. with 5% CO2. […]
(§2) Cells were washed twice with cold PBS, scraped, and pelleted by centrifugation (700 g, 5 min, 4° C.). […] Proteome concentrations were determined using BCA assay and lysate was diluted to appropriate working concentrations. […]

BCR-ABL = biological target: T6, BCR-ABL (Homo sapiens, UniProt P00519); assay: BCR-ABL degradation, Western blotting; format: cell-based
T6 construct: BCR (N-terminal part of P11274, natural fusion partner); endogenous in cells; host or cells: K562 (inferred); the other entry of the earlier key: BCR (P11274, Breakpoint cluster region protein)
Method: as §1, §2

PDE5 = biological target: T7, PDE5 (Homo sapiens, UniProt O76074); assay: PDE5 degradation in HEK293T cells, Western blotting; format: cell-based
T7 construct: endogenous in cells; host or cells: HEK293T
Method: as §1, §2

LRRK2 = biological target: T8, LRRK2 (Homo sapiens, UniProt Q5S007); assay: LRRK2 loss in A549 lung cancer cells, Western blotting; format: cell-based
T8 construct: endogenous in cells; host or cells: A549
Method: as §1, §2

T1 sequence (Q9BV68 whole entry): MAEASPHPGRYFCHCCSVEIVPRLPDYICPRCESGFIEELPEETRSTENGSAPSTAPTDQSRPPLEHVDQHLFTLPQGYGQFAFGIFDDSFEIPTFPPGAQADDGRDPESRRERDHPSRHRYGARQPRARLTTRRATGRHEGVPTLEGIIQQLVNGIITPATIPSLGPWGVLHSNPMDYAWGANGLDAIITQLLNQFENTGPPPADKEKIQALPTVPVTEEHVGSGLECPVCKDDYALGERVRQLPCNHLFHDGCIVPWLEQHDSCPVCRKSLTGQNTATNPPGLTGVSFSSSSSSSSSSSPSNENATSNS
T6 sequence (P00519 with tags, fused parts or gaps): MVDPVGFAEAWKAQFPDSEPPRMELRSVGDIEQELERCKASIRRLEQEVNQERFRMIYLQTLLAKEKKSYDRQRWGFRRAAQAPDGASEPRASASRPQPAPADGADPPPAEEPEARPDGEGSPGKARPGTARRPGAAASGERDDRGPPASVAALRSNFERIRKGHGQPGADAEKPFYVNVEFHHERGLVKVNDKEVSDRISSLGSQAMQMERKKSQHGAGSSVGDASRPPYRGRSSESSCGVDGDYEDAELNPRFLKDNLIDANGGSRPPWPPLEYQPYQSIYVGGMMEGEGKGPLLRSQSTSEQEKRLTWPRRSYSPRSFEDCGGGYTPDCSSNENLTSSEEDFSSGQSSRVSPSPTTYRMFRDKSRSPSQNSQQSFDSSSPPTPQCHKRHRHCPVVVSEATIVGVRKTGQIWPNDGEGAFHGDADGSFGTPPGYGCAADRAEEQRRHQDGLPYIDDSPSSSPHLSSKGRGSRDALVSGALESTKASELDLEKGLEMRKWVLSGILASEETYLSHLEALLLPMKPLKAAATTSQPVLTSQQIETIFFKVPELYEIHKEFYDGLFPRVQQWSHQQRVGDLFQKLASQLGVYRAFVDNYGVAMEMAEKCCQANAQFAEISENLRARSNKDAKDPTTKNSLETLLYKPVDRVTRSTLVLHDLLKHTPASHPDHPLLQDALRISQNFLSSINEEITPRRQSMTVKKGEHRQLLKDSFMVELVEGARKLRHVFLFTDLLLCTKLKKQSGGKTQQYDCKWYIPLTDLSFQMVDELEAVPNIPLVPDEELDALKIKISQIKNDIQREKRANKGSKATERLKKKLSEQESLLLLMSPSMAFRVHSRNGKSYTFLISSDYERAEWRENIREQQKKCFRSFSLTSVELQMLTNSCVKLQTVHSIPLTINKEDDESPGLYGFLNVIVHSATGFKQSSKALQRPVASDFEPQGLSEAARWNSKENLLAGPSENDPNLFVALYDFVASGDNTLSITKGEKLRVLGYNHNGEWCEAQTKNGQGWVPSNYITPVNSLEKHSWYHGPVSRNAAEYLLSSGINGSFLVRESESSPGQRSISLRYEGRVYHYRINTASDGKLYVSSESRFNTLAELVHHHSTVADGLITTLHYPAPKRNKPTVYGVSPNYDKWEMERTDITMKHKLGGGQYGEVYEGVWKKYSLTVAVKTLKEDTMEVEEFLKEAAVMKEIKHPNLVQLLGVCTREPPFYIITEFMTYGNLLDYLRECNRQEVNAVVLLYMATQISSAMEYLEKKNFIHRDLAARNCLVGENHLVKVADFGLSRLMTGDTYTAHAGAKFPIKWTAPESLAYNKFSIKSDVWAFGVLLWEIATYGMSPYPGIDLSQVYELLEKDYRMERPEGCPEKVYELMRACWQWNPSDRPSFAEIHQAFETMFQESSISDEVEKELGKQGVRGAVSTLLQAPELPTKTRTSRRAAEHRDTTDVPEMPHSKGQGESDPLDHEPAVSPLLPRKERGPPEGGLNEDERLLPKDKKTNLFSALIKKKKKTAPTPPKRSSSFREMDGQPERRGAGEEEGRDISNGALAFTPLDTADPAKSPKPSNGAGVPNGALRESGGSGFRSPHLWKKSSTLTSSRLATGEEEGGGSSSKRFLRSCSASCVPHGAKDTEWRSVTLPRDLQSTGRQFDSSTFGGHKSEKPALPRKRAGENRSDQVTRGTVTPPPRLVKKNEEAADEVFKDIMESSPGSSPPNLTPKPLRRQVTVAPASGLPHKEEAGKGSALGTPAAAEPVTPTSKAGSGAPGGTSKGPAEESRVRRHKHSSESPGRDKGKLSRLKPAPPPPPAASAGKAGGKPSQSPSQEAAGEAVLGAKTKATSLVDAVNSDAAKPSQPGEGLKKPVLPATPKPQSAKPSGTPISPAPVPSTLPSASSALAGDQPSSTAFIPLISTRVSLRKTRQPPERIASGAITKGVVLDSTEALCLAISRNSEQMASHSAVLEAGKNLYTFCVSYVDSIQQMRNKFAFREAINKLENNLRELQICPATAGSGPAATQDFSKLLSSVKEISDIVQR
T8 sequence (Q5S007 whole entry): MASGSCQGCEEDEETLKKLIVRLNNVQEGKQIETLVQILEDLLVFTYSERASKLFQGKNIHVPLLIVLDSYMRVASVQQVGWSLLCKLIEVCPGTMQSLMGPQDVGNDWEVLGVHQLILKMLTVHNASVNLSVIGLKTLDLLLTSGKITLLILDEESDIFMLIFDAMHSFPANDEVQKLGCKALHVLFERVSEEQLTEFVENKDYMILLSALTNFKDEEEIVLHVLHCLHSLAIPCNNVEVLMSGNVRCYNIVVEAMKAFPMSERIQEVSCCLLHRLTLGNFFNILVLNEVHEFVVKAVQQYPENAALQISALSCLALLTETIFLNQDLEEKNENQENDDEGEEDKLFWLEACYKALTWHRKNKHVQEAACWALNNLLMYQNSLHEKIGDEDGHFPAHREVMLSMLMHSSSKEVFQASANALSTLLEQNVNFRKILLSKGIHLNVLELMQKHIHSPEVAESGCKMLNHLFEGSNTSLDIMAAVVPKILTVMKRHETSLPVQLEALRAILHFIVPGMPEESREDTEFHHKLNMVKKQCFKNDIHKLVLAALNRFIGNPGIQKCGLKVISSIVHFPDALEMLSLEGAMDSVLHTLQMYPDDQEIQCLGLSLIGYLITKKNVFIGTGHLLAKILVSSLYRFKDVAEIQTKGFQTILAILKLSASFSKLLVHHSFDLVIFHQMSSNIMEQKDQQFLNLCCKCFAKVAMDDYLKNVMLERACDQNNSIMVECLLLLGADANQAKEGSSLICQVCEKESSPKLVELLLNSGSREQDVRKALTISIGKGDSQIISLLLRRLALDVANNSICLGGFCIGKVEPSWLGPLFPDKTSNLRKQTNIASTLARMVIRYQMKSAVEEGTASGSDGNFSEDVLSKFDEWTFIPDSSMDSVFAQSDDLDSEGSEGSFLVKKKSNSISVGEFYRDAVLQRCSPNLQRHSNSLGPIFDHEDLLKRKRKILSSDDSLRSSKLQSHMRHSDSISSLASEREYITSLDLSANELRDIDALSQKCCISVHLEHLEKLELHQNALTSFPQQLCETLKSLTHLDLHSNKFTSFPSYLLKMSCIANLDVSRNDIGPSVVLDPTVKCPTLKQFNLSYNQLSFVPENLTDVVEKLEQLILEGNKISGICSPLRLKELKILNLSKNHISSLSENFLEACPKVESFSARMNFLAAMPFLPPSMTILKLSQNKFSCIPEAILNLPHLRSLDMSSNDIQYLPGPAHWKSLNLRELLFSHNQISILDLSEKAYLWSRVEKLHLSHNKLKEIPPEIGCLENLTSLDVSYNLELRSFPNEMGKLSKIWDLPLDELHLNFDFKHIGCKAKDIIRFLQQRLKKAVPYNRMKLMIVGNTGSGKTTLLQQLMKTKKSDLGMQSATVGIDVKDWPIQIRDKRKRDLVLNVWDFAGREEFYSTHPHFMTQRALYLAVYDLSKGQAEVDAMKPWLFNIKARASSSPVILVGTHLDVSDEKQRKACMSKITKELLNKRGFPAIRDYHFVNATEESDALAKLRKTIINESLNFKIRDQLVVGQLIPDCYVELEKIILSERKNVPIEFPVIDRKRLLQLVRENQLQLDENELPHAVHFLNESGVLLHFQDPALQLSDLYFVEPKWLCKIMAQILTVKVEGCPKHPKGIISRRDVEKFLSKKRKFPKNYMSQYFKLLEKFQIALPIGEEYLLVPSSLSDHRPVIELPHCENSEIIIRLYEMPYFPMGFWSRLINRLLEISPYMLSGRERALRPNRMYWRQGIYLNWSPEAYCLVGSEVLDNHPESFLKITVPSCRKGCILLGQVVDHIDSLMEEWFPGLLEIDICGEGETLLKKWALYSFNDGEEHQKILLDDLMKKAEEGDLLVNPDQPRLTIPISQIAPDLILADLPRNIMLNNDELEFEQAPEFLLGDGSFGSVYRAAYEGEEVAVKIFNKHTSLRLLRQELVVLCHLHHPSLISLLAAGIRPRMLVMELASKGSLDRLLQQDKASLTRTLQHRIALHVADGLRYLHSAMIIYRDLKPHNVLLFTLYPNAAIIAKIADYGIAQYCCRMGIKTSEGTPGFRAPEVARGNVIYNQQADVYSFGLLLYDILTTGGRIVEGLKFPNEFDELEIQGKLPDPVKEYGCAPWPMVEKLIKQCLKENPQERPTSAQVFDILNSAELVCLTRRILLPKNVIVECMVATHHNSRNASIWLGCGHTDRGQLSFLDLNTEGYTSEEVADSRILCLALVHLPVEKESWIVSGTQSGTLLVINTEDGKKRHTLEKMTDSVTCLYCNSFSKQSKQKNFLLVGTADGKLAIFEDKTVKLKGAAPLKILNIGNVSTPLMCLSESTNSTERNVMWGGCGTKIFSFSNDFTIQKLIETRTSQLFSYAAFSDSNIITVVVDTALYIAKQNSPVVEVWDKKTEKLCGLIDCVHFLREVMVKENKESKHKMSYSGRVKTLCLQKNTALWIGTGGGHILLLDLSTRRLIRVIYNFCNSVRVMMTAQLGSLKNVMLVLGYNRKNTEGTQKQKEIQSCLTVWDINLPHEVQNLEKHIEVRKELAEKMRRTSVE
T3 sequence (Q9BV68 whole entry): as the sequence (Q9BV68 whole entry) above

- effect of RNF126 knockdown on compound-mediated CDK4 degradation (CDK4): completely attenuated
- cysteine engaged across the proteome (isoTOP-ABPP) [1]: covalently binds to cysteine 32 (C32)
Structure (SMILES): CN(C)C(=O)c1cc2cnc(Nc3ccc(N4CCN(C(=O)/C=C/c5ccc(C(F)(F)F)cc5)CC4)cn3)nc2n1C1CCCC1 [Compound 106]
- binding to RNF126 (gel-based ABPP), in words (Recombinant RNF126): confirms the interaction of Compound 106 with RNF126
- adduct on RNF126 by mass spectrometry of tryptic digests (pure RNF126 protein): mass adduct of Compound 106 on pure RNF126 protein is observed

- binding to RNF126 (gel-based ABPP), in words (Recombinant RNF126): potent binding
Structure (SMILES): COc1ccc(C(=O)/C=C/C(=O)N2CCN(c3cc(Nc4ncc(C(=O)Nc5c(C)cccc5Cl)s4)nc(C)n3)CC2)cc1 [Compound 126]
- degradation of c-ABL kinase, in words (c-ABL kinase): degradation of both BCR-ABL and c-ABL kinase in a dose-responsive manner
- degradation of BCR-ABL, in words (BCR-ABL): degradation of both BCR-ABL and c-ABL kinase in a dose-responsive manner

- binding to RNF126 (gel-based ABPP), in words (Recombinant RNF126): potent binding
Structure (SMILES): CCCc1nn(C)c2c(=O)[nH]c(-c3cc(S(=O)(=O)N4CCN(C(=O)/C=C/C(=O)c5ccc(OC)cc5)CC4)ccc3OCC)nc12 [Compound 127]
- degradation of PDE5, in words (PDE5): degradation of PDE5 in HEK293T cells in a dose-responsive and proteasome-dependent manner

- binding to RNF126 (gel-based ABPP), in words (Recombinant RNF126): potent binding
Structure (SMILES): CNc1nc(Nc2ccc(C(=O)N3CCN(C(=O)/C=C/C(=O)c4ccc(OC)cc4)CC3)cc2OC)ncc1Cl [Compound 129]
- loss of LRRK2, in words (LRRK2): loss of LRRK2 in A549 lung cancer cells in a dose-responsive manner

— US20260200939A1, “MOLECULAR GLUE DEGRADER COMPOUNDS AND USES THEREOF” (Novartis AG, priority 2022, published 2026)
